Data taken from article PMC11206922, “Novel Histone Deacetylase (HDAC) Inhibitor Induces Apoptosis and Suppresses Invasion via E-Cadherin Upregulation in Pancreatic Ductal Adenocarcinoma (PDAC)” (Pharmaceuticals, 2024).

Biological target: T1, HDAC 2 (Homo sapiens, UniProt Q92769)
T1 construct: gene HDAC2
Experiment: HDAC enzyme inhibition assay (details not shown)
Assay type: biochemical

T1 sequence (Q92769 whole entry): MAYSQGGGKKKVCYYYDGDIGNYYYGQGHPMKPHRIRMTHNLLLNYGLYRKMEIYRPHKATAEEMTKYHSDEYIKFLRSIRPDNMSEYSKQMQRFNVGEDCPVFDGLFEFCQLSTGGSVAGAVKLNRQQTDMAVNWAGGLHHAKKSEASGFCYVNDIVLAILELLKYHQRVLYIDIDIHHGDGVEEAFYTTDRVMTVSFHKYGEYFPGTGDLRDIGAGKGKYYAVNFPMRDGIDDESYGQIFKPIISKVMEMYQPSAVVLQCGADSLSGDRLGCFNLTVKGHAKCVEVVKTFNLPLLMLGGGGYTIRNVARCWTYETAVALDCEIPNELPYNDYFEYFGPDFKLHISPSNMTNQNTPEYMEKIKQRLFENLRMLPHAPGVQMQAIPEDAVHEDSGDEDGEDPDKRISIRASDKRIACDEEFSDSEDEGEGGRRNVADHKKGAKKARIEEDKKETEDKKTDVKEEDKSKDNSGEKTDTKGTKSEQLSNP

COc1cc(NC(=O)NCCCCCCC(=O)NO)c2nc(OC)cc(C)c2c1 [compound 8, MPK544]
IC50: 58 ± 20 nM
